Usually IC50 stands for the concentration that inhibits the measured activity by half. A lower IC50 goes with inhibition by little substance. One may read the inhibition as the share of the control response that was lost under treatment. Read a high inhibition as strong suppression.

These results are taken from patent US12398111B2, “Triazine compounds and pharmaceutical use thereof” (Japan Tobacco Inc., priority 2014, dated 2025).

The first assay addresses T1, human mPGES-1 (Homo sapiens, UniProt O14684).
T1 construct: made in house; host or cells: FreeStyle CHO-S cells (Chinese hamster ovary), transient transfection with pcDNA3.1(+)/human mPGES-1; microsome fraction used
T1 sequence (O14684 1-152): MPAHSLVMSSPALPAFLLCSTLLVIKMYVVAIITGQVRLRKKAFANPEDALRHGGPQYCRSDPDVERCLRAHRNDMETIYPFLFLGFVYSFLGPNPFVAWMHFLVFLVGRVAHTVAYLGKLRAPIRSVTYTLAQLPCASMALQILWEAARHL
Nature of the assay: Evaluation of human mPGES-1 enzyme inhibitory activity (PGE2 measured by HTRF, microsome fraction of CHO-S cells expressing human mPGES-1). Format: biochemical. The note with it: IC50 value; microsome fraction of CHO-S cells expressing human mPGES-1, PGE2 by HTRF. As to the method:
That is, the amount of PGE2 produced by human mPGES-1 in the presence of a test article was measured by the HTRF (homogeneous time resolved fluorescence) method, based on which the human mPGES-1 enzyme inhibitory activity of the test article was determined.
1) Preparation of Human mPGES-1 Expressing Cell Microsome Fraction
A DNA fragment containing human mPGES-1, which is added with a BamHI recognition cleavage sequence immediately before the translation initiation codon and an EcoRI recognition cleavage sequence immediately after the translation termination codon was amplified by the PCR (Polymerase Chain Reaction) method using a human mPGES-1 expression plasmid DNA (pME-18S/iPGES-1) prepared in-house as a template. The purified DNA fragment was digested with BamHI and EcoRI, and ligated to pcDNA3.1(+) (Invitrogen, model number V790-20), similarly digested with BamHI and EcoRI, by using a DNA Ligation kit ver.2.1 (Takara Bio, model number 6022). The human mPGES-1 expression plasmid DNA was isolated from Escherichia coli DH5a (TOYOBO, model number DNA-903) transformed with the obtained ligation product. The base sequence of human mPGES-1 cloned to a vector was determined by the Dye Terminator method by using BigDye Terminator v3.1 Cycle Sequencing Kit (Applied Biosystems, #4337455).
Human mPGES-1 expression plasmid DNA was transfected into Chinese hamster ovary-derived cells (FreeStyle CHO-S Cell, Invitrogen, #R800-07) by using a transgene reagent (FreeStyle MAX Reagent (Invitrogen, #16447-100)), and cultured with shaking (8% CO2, 37° C.) in a medium containing 8 mmol/L L-glutamine (GIBCO FreeStyle CHO Expression Medium, Invitrogen, #12651-022) for 48 hr.
The CHO-S cells were suspended in Homogenate Buffer (100 mmol/L potassium phosphate (pH 7.4), 250 mmol/L Sucrose, 100 mmol/L EDTA, complete EDTA free (Roche, #1873580)). Using an ultrasonic disruptor UD-201 (Tomy Seiko), the suspended cells were disrupted at output:3, duty cycle:50 for 30 seconds. The precipitate was removed by centrifugation (1,000×g, 5 min, 4° C.), is and the supernatant was centrifuged (5,000×g, 10 min, 4° C.). The supernatant was further centrifuged (105,000×g, 60 min, 4° C.). The obtained precipitate was suspended in Resuspension Buffer (100 mmol/L potassium phosphate (pH 7.4), 250 mmol/L sucrose, 100 mmol/L EDTA, 10% glycerol) to give a microsome fraction.
The protein concentration of the microsome fraction was measured by the Bradford method (Protein Assay Kit, Bio-Rad). The microsome fraction was rapidly frozen in liquid nitrogen and preserved at −80° C. Human mPGES-1 in the microsome fraction was detected by Western Blot using rabbit anti-mPGES-1 polyclonal antibody (ThermoFisher Scientific, #PA1-10264).
2) Evaluation of Human mPGES-1 Enzyme Inhibitory Activity
A test article solution diluted with 0.1 mol/L potassium phosphate, pH 7.4 (hereinafter to be referred to as KPB) or DMSO (Nacalai Tesque, #13407-45) was added at 5 μL/well to 96 well V-bottom plate (Corning, #3363). The final DMSO concentration during the reaction was set to 2% (v/v). Furthermore, a microsome fraction of CHO-S cells expressing human mPGES-1, which was diluted with reduced GSH (12.5 mmol/L KPB solution, SIGMA, #G6529-25G) such that the protein concentration was 5 μg/mL, was added at 20 μL/well. The amount of the microsome fraction used is the amount of microsome fraction within a range where the amount of PGE2 produced under the reaction conditions shown below and the amount of microsome fraction used show linearity. To the blank was added reduced GSH (12.5 mmol/L KPB solution) at 20 μL/well.
(Time-resolved FRET reads energy transfer from a long-lived donor to a nearby acceptor.)
`CN(Cc1ccc(Cl)c(-c2nc(O)nc(-c3ccc(OCC(C)(C)C)cc3)n2)c1)C(=O)C(C)(C)C(F)(F)F` [Example 1-196] showed an IC50 of 42 nM.
With `Oc1nc(-c2ccc(C#Cc3ccccc3)cc2)nc(-c2c(OCc3cc(C(F)(F)F)ccn3)cccc2C(F)(F)F)n1` [Example 2-122], the IC50 stood at 15 nM.
On the same count and under the same terms, the same measure for `CC(C)(C)C#Cc1ccc(-c2nc(O)nc(-c3c(Cl)cccc3OCc3ccccn3)n2)cc1` [Example 2-94]: 4.1 nM.
As for `O=C(O)Cc1ccc(Cl)c(-c2nc(O)nc(-c3ccc(C(F)(F)F)cc3)n2)c1` [Example 1-23], the IC50 was found to be 134 nM.
Same read-out and setting: as for `CN(Cc1ccc(Cl)c(-c2nc(O)nc(-c3ccccc3)n2)c1)C(=O)C1(C(F)(F)F)CCCC1` [Example 1-238], the figure is 7.4 nM; as for `CC(C)C(=O)NCc1ccc(Cl)c(-c2nc(O)nc(-c3ccc(C(F)(F)F)cc3)n2)c1` [Example 1-28], 0.6 nM; as for `CCCOc1ccc(-c2nc(O)nc(-c3c(C)cccc3C)n2)cc1` [Example 2-41], 429 nM.
The compound `O=C(NCc1ccc(Cl)c(-c2nc(O)nc(-c3cccc(OC(F)(F)F)c3)n2)c1)C1(C(F)(F)F)CCCC1` [Example 1-78] registered a half-maximal inhibitory concentration (IC50) of 2.2 nM.
Regarding `COc1cccc(-c2nc(O)nc(-c3c(C)cccc3C)n2)c1` [Example 2-14], the IC50 turned out to be 14300 nM.
`CC(C)(C)C1CCC2(CC1)CN(Cc1ccc(Cl)c(-c3nc(O)nc(-c4ccccc4)n3)c1)C2=O` (single isomer, unassigned) [Example 1-266, 7-tert-butyl-2-[4-chloro-3-(4-hydroxy-6-phenyl-1,3,5-triazin-2-yl)benzyl]-2-azaspiro[3.5]nonan-1-one] gave an IC50 of 11 nM.
For the compound `CCC(=O)N(C)Cc1ccc(Cl)c(-c2nc(O)nc(-c3ccccc3)n2)c1` [Example 1-224], 5800 nM corresponded to half-maximal inhibition (IC50).
The compound `COc1cccc(COc2cccc(C(F)(F)F)c2-c2nc(O)nc(-c3ccc(C#Cc4ccccc4)cc3)n2)n1` [Example 2-118] gave an IC50 of 7.1 nM.
Turning to `O=C1N(Cc2ccc(Cl)c(-c3nc(O)nc(-c4ccccc4)n3)c2)CC12CCCC2` [Example 1-255], half-maximal inhibition (IC50) required 45 nM. This IC50 lies about 6.3-fold higher than the previous one.
In the case of `Cc1cccc(C)c1-c1nc(O)nc(-c2ccc(OCC(C)C)cc2)n1` [Example 2-42], half-maximal inhibition (IC50) required 239 nM.
Turning to `CC(C)(C)C(=O)NCc1ccc(Cl)c(-c2nc(O)nc(-c3cccc(C(C)(C)C)c3)n2)c1` [Example 1-57], the IC50 was found to be 0.5 nM.
In turn, `CC(C)(C)C(=O)NCc1ccc(Cl)c(-c2nc(O)nc(-c3cccc(F)c3)n2)c1` [Example 1-76] came in with an IC50 of 1.7 nM.
The same measure, in the same setting: the same measure for `CC(C)(C(=O)NCc1ccc(Cl)c(-c2nc(O)nc(-c3ccc(OCC4(C(F)(F)F)CC4)cc3)n2)c1)C(F)(F)F` [Example 1-164]: 3.7 nM.
Still for that read-out and setting: the same measure for `CO[C@](C)(C(=O)NC(C)c1ccc(Cl)c(-c2nc(O)nc(-c3ccc(OCC(C)(C)C)cc3)n2)c1)C(F)(F)F` (single isomer, unassigned) [Example 1-201]: 306 nM; for `CO[C@](C)(C(=O)NCc1ccc(Cl)c(-c2nc(O)nc(-c3ccc(OCC(C)C)cc3)n2)c1)C(F)(F)F` [Example 1-123]: 2.3 nM; for `CO[C@](C)(C(=O)NCc1ccc(Cl)c(-c2nc(O)nc(-c3ccc(F)c(C4CC4)c3)n2)c1)C(F)(F)F` [Example 1-165]: 0.9 nM.
On to `Cc1cc(-c2nc(O)nc(-c3cc(CNC(=O)C(C)(C)C(F)(F)F)ccc3Cl)n2)ccc1OCC1CC1` [Example 1-175], for which the IC50 turned out to be 1.3 nM.
In turn, `CC(C)COc1ccc(-c2nc(O)nc(-c3c(Cl)cccc3OCc3ccccn3)n2)cc1` [Example 2-66] yielded an IC50 of 16 nM.
Regarding `Cc1cc(C)c(-c2nc(O)nc(-c3ccc(C(F)(F)F)cc3)n2)c(C)c1` [Example 3-1], half-maximal inhibition (IC50) required 484 nM.
Same read-out and setting: as for `CC(C)CCOc1ccc(-c2nc(O)nc(-c3cc(CNC(=O)C(C)(C)C(F)(F)F)ccc3Cl)n2)cc1` [Example 1-114], the figure is 5.9 nM; as for `Cc1cccc(C)c1-c1nc(O)nc(-c2ccc(OCC3CCCCCC3)cc2)n1` [Example 2-57], 25 nM.
`Cc1cc(-c2nc(O)nc(-c3cc(CNC(=O)C(C)(C)C(F)(F)F)ccc3Cl)n2)ccc1Cl` [Example 1-112] came in with an IC50 of 0.9 nM. Compared with the last compound, the IC50 is about 28-fold lower.
In the case of `Cc1cccc(C)c1-c1nc(O)nc(-c2ccc(OCc3ccccc3)cc2)n1` [Example 2-5], the IC50 turned out to be 101 nM.
The compound `CCc1cc(-c2nc(O)nc(-c3cc(CNC(=O)C(C)(C)C(F)(F)F)ccc3Cl)n2)ccc1F` [Example 1-124] displayed an IC50 of 0.9 nM.
`CC(=O)NCc1ccc(Cl)c(-c2nc(O)nc(-c3ccc(C(F)(F)F)cc3)n2)c1` [Example 1-16]: half-maximal inhibition (IC50) required 10 nM. This IC50 is about 11-fold higher than that of the compound before.
Same read-out and setting: the same measure for `Oc1nc(-c2ccc(C#Cc3ccccc3)cc2)nc(-c2c(OCc3ncccc3F)cccc2C(F)(F)F)n1` [Example 2-111]: 4.4 nM; for `CCOc1cccc(-c2nc(O)nc(-c3cc(CNC(=O)C4(C(F)(F)F)CCCC4)ccc3Cl)n2)c1` [Example 1-85]: 0.5 nM.
As for `CCCc1ccc(-c2nc(O)nc(-c3cc(CNC(=O)C(C)(C)C)ccc3Cl)n2)cc1` [Example 1-44], the IC50 stood at 0.6 nM.
The compound `CC(C)(C)COc1ccc(-c2nc(O)nc(-c3cc(CCNC(=O)C(C)(C)C(F)(F)F)ccc3Cl)n2)cc1` [Example 1-203] yielded an IC50 of 20 nM.
Consider `CC#CCOc1ccc(-c2nc(O)nc(-c3cc(CNC(=O)C(C)(C)C(F)(F)F)ccc3Cl)n2)cc1` [Example 1-146], for which half-maximal inhibition (IC50) required 0.4 nM. This IC50 is about 50-fold lower than that of the compound before.
In turn, `COc1cccc(C#Cc2ccc(-c3nc(O)nc(-c4c(OCc5cccc(C)n5)cccc4C(F)(F)F)n3)cc2)c1` [Example 2-125] came in with an IC50 of 4.3 nM.
In turn, `Oc1nc(-c2ccc(C#Cc3ccccc3)cc2)nc(-c2c(OCc3cccc(C(F)(F)F)n3)cccc2C(F)(F)F)n1` [Example 2-121] came in with an IC50 of 14 nM.
Same read-out and setting: the same measure for `Oc1nc(-c2ccc(C(F)(F)F)cc2)nc(-c2c(F)cccc2Cl)n1` [Example 2-10]: 73 nM; for `C[C@H](Oc1cccc(Cl)c1-c1nc(O)nc(-c2ccc(OCC(C)(C)C)cc2)n1)c1ccccn1` [Example 2-64]: 12 nM; for `CC1(C(=O)NCc2ccc(Cl)c(-c3nc(O)nc(-c4ccccc4)n3)c2)CCCCC1` [Example 1-52]: 0.6 nM.
Take `CC(C)COc1ccc(-c2nc(O)nc(-c3cc(CNC(=O)C(C)(C)C(F)(F)F)ccc3Cl)n2)cn1` [Example 1-182]: the IC50 is 1.6 nM.
As to `CC(C)(C(=O)NCc1ccc(Cl)c(-c2nc(O)nc(-c3ccccc3)n2)c1)C(F)(F)F` [Example 1-69], the IC50 came to 0.3 nM.
Same read-out and setting: as for `CO[C@](C)(C(=O)NC(C)c1ccc(Cl)c(-c2nc(O)nc(-c3ccc(F)c(C)c3)n2)c1)C(F)(F)F` (single isomer, unassigned) [Example 1-188], the figure is 1.6 nM.
The same measure, in the same setting: as for `CCCc1cccc(-c2nc(O)nc(-c3cc(CNC(=O)C(C)(C)C(F)(F)F)c(C)cc3Cl)n2)c1` [Example 3-16], the figure is 2.1 nM.
With `Cc1cccc(C)c1-c1nc(O)nc(-c2ccc(C(C)(C)C)cc2)n1` [Example 2-7], the IC50 came out at 3500 nM.
The compound `CCCC(C)(C)C(=O)N(C)Cc1ccc(Cl)c(-c2nc(O)nc(-c3ccccc3)n2)c1` [Example 1-245] came in with an IC50 of 108 nM.

Staying with this assay, now noted: at 30 μM test article.
`Cc1cccc(C)c1-c1nc(O)nc(-c2ccc(O)cc2)n1` [Example 2-6] gave an inhibition at 30 µM of 28%.
